From US9663516B2, “Bicyclic-pyrimidinedione compounds” (MyoKardia, Inc., priority 2014, dated 2017)

Target: bovine cardiac myosin (Bos taurus, UniProt Q9BE39)
Assay: Myosin inhibition assay (PK/LDH-coupled ATPase, bovine cardiac myofibrils)
Type: biochemical
Details: calcium concentration giving 50% activation, pH 6.8, read-out: bcMF pCa_6 IC50
Description: Small molecule agents were assessed for their ability to inhibit the enzymatic activity of bovine cardiac myosin using a biochemical assay that couples the release of ADP (adenosine diphosphate) from cardiac myosin to an enzymatic coupling system consisting of pyruvate kinase and lactate dehydrogenase (PK/LDH) and monitoring the absorbance decrease of NADH (at 340 nm) as a function of time. PK converts ADP to ATP (adenosine triphosphate) by converting PEP (phosphoenolpyruvate) to pyruvate. Pyruvate is then converted to lactate by LDH by converting NADH (nicotinamide adenine dinucleotide) to NAD (oxidized nicotinamide adenine dinucleotide). […] Prior to testing small molecule agents, the bovine myofibrils were assessed for their calcium responsiveness and the calcium concentration that achieves a 50% activation of the myofibril system was chosen as the final condition for assessing the inhibitory activity of the small molecule agents. All enzymatic activity was measured in a buffered solution containing 12 mM PIPES (piperazine-N,N′-bis(2-ethanesulfonic acid), 2 mM magnesium chloride at pH 6.8 (PM12 buffer). Final assay conditions were 1 mg/mL of bovine cardiac myofibrils, 0.4 mM PK/LDH, 50 uM ATP, 0.1 mg/mL BSA (bovine serum albumin), 10 ppm antifoam, 2 mM BME, 0.5 mM NADH, 1.5 mM PEP at the desired free calcium concentration required to achieve 50% activation of the myofibrils.
A dilution series of compound was created in DMSO such that the final desired concentration of compound would be achieved in a volume of 30 μL with a fixed DMSO concentration of 3.3% (v/v). Typically 1 μL of the dilution series were added to 384 well plate to achieve an 10 point dose response. Following the addition of 14 μL of a solution containing bovine cardiac myofibrils, PK/LDH and a solution of calcium (that achieved 50% activation), the enzymatic reaction was started with the addition of 15 μL of a solution containing ATP, PEP and NADH. The reaction progress was followed in a PerkinElmer Envision plate reader at ambient temperature using clear bottom plates. The plate reader was configured to read absorbance at 340 nm in kinetics mode for 15 minutes. Data were recorded as the slope of the absorbance response to time. The slopes of the absorbance response as a function of time were normalized to slopes on the plate containing DMSO. This normalized rate was then plotted as a function of small molecule concentration and the data was fitted to a four-parameter fit using EXCEL XLfit. The IC50 is the concentration at which fifty percent of the total response is inhibited.

Sequence of bovine cardiac myosin (Q9BE39 whole entry): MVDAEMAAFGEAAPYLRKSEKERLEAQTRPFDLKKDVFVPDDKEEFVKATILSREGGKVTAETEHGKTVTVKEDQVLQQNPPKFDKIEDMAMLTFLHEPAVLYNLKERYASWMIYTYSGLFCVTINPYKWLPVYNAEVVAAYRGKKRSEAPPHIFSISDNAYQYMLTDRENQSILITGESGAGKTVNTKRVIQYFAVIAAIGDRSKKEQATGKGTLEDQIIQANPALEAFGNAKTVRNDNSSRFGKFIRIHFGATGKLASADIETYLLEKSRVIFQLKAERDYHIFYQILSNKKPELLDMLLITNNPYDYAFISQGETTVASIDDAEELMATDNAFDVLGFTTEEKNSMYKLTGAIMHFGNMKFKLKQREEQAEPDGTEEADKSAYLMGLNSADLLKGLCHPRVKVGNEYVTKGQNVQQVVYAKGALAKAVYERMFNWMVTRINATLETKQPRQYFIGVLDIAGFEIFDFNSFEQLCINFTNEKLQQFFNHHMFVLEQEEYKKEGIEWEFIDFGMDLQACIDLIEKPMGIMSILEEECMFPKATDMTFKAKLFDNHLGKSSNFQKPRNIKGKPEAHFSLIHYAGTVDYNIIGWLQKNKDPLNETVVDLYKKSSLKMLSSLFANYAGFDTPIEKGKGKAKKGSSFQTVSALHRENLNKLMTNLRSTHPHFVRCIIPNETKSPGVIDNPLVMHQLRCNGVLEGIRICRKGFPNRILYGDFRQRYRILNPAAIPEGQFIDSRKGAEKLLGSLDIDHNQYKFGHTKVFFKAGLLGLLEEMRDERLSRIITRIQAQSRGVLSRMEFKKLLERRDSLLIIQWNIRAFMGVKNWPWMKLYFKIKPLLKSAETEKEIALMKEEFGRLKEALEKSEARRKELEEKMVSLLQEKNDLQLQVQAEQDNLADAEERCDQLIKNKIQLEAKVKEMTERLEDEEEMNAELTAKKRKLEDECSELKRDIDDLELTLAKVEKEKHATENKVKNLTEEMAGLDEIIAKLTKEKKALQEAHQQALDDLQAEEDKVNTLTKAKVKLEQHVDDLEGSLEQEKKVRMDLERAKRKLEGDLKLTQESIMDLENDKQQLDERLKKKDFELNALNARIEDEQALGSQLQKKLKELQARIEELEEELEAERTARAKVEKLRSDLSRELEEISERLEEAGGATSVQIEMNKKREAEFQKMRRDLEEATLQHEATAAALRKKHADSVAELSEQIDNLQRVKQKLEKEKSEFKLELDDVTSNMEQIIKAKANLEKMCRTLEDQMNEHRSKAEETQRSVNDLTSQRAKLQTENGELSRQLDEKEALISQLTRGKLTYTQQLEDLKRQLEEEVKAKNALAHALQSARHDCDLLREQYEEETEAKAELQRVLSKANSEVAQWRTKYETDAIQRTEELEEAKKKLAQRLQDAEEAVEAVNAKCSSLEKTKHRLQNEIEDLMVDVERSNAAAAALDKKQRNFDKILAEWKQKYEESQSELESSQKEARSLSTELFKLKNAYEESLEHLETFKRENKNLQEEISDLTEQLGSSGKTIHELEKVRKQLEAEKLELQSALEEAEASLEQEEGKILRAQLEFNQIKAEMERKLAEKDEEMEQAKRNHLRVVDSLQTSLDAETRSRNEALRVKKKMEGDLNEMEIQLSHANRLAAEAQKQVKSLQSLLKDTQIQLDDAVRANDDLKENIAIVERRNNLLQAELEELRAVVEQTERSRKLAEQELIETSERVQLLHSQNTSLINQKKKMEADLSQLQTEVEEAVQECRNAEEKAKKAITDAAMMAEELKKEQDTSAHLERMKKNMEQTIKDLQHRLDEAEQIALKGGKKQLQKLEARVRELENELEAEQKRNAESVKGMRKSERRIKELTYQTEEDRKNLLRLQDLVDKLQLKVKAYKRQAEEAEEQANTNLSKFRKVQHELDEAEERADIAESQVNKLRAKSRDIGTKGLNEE
Sequence of bovine cardiac myosin (P85100 whole entry partner): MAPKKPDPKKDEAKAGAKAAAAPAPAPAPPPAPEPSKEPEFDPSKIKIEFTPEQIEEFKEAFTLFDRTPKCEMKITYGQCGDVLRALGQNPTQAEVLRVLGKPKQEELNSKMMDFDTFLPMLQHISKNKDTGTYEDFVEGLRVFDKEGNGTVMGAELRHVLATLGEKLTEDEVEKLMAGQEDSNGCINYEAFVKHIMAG
Sequence of bovine cardiac myosin (Q3SZE5 whole entry partner): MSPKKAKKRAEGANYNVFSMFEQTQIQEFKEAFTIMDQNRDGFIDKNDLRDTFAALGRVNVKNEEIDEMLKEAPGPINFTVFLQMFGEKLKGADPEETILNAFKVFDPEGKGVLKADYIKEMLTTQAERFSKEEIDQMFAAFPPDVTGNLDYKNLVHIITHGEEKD

Compound | IC50 [µM]
CC(C)n1c(=O)[nH]c2c(c1=O)C[C@H](c1ccccc1)N2 (single isomer, unassigned) [Compound 7] | 1 to 15
CC(C)n1c(=O)[nH]c2c(c1=O)C[C@@H](c1ccccc1)N2 (single isomer, unassigned) [Compound 8] | > 15
O=c1[nH]c2c(c(=O)n1-c1ccccc1)CC[C@H](c1ccc(F)cc1)N2 [Compound 3, (R)-7-(4-Fluorophenyl)-3-phenyl-5,6,7,8-tetrahydropyrido[2,3-d]pyrimidine-2,4(1H,3H)-dione] | 1 to 15
COc1cccc([C@H]2CCc3c([nH]c(=O)n(C(C)C)c3=O)N2)c1 [Compound 5, (R)-3-Isopropyl-7-(3-methoxyphenyl)-5,6,7,8-tetrahydropyrido[2,3-d]pyrimidine-2,4(1H,3H)-dione] | 1 to 15
CC(C)n1c(=O)[nH]c2c(c1=O)CCCN2 [Compound 10, 3-Isopropyl-5,6,7,8-tetrahydropyrido[2,3-d]pyrimidine-2,4(1H,3H)-dione] | > 15
CCn1c(=O)[nH]c2c(c1=O)CC[C@H](c1cccc(Cl)c1)N2 [Compound 11, (R)-7-(3-Chlorophenyl)-3-ethyl-5,6,7,8-tetrahydropyrido[2,3-d]pyrimidine-2,4(1H,3H)-dione] | 1 to 15
CC(C)n1c(=O)[nH]c2c(c1=O)CC[C@H](c1cccc(Cl)c1)N2 [Compound 12] | < 1
CCn1c(=O)[nH]c2c(c1=O)CC[C@H](c1ccc(F)c(Cl)c1)N2 [Compound 13] | 1 to 15
CCn1c(=O)[nH]c2c(c1=O)CC[C@H](c1ccc(Cl)cc1)N2 [Compound 15] | 1 to 15
CCn1c(=O)[nH]c2c(c1=O)CC[C@H](c1ccc(F)cc1F)N2 [Compound 16] | 1 to 15
CC(C)n1c(=O)[nH]c2c(c1=O)CC[C@H](c1cc(F)ccc1F)N2 [Compound 17] | 1 to 15
O=c1[nH]c2c(c(=O)n1CC1CC1)CC[C@H](C1CCC(F)(F)CC1)N2 [Compound 19] | 1 to 15
O=c1[nH]c2c(c(=O)n1C1CC1)CC[C@H](C1CCC(F)(F)CC1)N2 [Compound 21] | 1 to 15
CC(C)Cn1c(=O)[nH]c2c(c1=O)CC[C@H](C1CCC(F)(F)CC1)N2 [Compound 23] | < 1
O=c1[nH]c2c(c(=O)n1CC(F)F)CC[C@H](c1cccc(F)c1)N2 [Compound 24] | 1 to 15
CCn1c(=O)[nH]c2c(c1=O)CC[C@H](c1cc(F)cc(F)c1)N2 [Compound 25] | > 15
O=c1[nH]c2c(c(=O)n1-c1ccccc1)CC[C@H](c1ccccc1)N2 [Compound 26] | 1 to 15
CC(C)n1c(=O)[nH]c2c(c1=O)CC[C@H](C1CCOCC1)N2 [Compound 27] | 1 to 15
O=c1[nH]c2c(c(=O)n1C1CCC1)CC[C@H](c1ccccc1)N2 [Compound 28] | 1 to 15

Compound | IC50 [µM]
CC[C@H](C)n1c(=O)[nH]c2c(c1=O)CC[C@H](C1CCC(F)(F)CC1)N2 [Compound 29] | 1 to 15
CCCn1c(=O)[nH]c2c(c1=O)CC[C@H](C1CCC(F)(F)CC1)N2 [Compound 30] | < 1
O=c1[nH]c2c(c(=O)n1C1CCOCC1)CC[C@H](c1ccccc1)N2 [Compound 32] | 1 to 15
O=c1[nH]c2c(c(=O)n1-c1ccc(F)cn1)CC[C@H](C1CCC(F)(F)CC1)N2 [Compound 33] | < 1
O=c1[nH]c2c(c(=O)n1-c1cccc(F)n1)CC[C@H](c1ccccc1)N2 [Compound 34] | 1 to 15
O=c1[nH]c2c(c(=O)n1-c1ccccn1)CC[C@H](c1ccccc1)N2 [Compound 35] | 1 to 15
Cn1ccc(-n2c(=O)[nH]c3c(c2=O)CC[C@H](C2CCC(F)(F)CC2)N3)n1 [Compound 36] | < 1
CC1(n2c(=O)[nH]c3c(c2=O)CC[C@H](C2CCC(F)(F)CC2)N3)CC1 [Compound 37] | < 1
Cc1cccc(-n2c(=O)[nH]c3c(c2=O)CC[C@H](C2CCC(F)(F)CC2)N3)n1 [Compound 38] | 1 to 15
COc1cccc(-n2c(=O)[nH]c3c(c2=O)CC[C@H](C2CCC(F)(F)CC2)N3)n1 [Compound 39] | 1 to 15
O=c1[nH]c2c(c(=O)n1-c1cc(F)cc(F)c1)CC[C@H](C1CCCC1)N2 [Compound 40] | 1 to 15
CC(C)n1c(=O)[nH]c2c(c1=O)CC[C@H](C1CC(F)(F)C1)N2 [Compound 41] | 1 to 15
O=c1[nH]c2c(c(=O)n1-c1cc(F)cc(F)c1)CC[C@H](C1CC(F)(F)C1)N2 [Compound 42] | > 15
O=c1[nH]c2c(c(=O)n1-c1cccc(F)n1)CC[C@H](C1CCC(F)(F)CC1)N2 [Compound 43] | < 1
CC(C)[C@H]1CCc2c([nH]c(=O)n(-c3cc(F)cc(F)c3)c2=O)N1 [Compound 44] | > 15
O=c1[nH]c2c(c(=O)n1-c1ccccn1)CC[C@H](C1CCC(F)(F)CC1)N2 [Compound 45] | < 1
O=c1[nH]c2c(c(=O)n1-c1ccccc1)CC[C@H](C1CCC(F)(F)CC1)N2 [Compound 47] | < 1
O=c1[nH]c2c(c(=O)n1-c1ccccc1)CC[C@H](c1cccc(F)c1)N2 [Compound 49] | 1 to 15
CC(C)n1c(=O)[nH]c2c(c1=O)CC[C@H](CC1CC(F)(F)C1)N2 [Compound 50] | 1 to 15

Compound | IC50 [µM]
O=c1[nH]c2c(c(=O)n1-c1cc(F)cc(F)c1)CC[C@H](CC1CC(F)(F)C1)N2 [Compound 51] | 1 to 15
O=c1[nH]c2c(c(=O)n1-c1cc(F)cc(F)c1)CC[C@H](C1CCC(O)CC1)N2 (some centres unmarked) [Compound 52] | 1 to 15
CC(C)n1c(=O)[nH]c2c(c1=O)CC[C@H](c1ccc(=O)[nH]c1)N2 [Compound 54] | > 15
C/C=C(\C)n1c(=O)[nH]c2c(c1=O)CC[C@H](c1ccccc1)N2 [Compound 55] | 1 to 15
CC1(n2c(=O)[nH]c3c(c2=O)CC[C@H](c2ccccc2)N3)CC1 [Compound 56] | 1 to 15
CCn1c(=O)[nH]c2c(c1=O)CC[C@H](c1ccccc1Cl)N2 [Compound 57] | 1 to 15
CCn1c(=O)[nH]c2c(c1=O)CC[C@H](c1cccc(F)c1F)N2 [Compound 58] | > 15
COc1ccc([C@H]2CCc3c([nH]c(=O)n(C(C)C)c3=O)N2)cn1 [Compound 59] | 1 to 15
O=c1[nH]c2c(c(=O)n1-c1cc(F)cc(F)c1)CC[C@H](c1cccc(F)c1)N2 [Compound 60] | 1 to 15
CCn1c(=O)[nH]c2c(c1=O)CC[C@H](c1cccc(F)c1)N2 [Compound 61] | 1 to 15
CC(C)n1c(=O)[nH]c2c(c1=O)CC[C@H](CC1CCOCC1)N2 [Compound 62] | > 15
O=c1[nH]c2c(c(=O)n1CC(F)(F)F)CC[C@H](c1ccccc1)N2 [Compound 63] | 1 to 15
CCn1c(=O)[nH]c2c(c1=O)CC[C@H](c1ccccc1)N2 [Compound 64] | > 15
O=c1[nH]c2c(c(=O)n1-c1cc(F)cc(F)c1)CC[C@H](c1ccccc1)N2 [Compound 65] | 1 to 15
CC(C)n1c(=O)[nH]c2c(c1=O)CC[C@H](Cc1ccccc1)N2 [Compound 66] | < 1
O=c1[nH]c2c(c(=O)n1-c1cc(F)cc(F)c1)C[C@H](c1ccccc1)N2 [Compound 71] | > 15
CC(C)n1c(=O)[nH]c2c(c1=O)CC[C@H](c1c(F)cccc1F)N2 [Compound 72] | 1 to 15
O=c1[nH]c2c(c(=O)n1CC(F)F)CC[C@H](c1ccc(F)cc1)N2 [Compound 73] | 1 to 15
